Measured values: patent publication US4831051A, “Aromatic derivatives comprising an aminoalkoxy chain, the salts thereof, the process for preparing these derivatives and salts and the application thereof in therapeutics” (Delande S.A., priority 1981, dated 1989)

Test: acute toxicity estimated on mice (method of MILLER and TAINTER)
Settings: mouse, in vivo, iv

In order of rising LD50:
1. COc1cc(F)c(OC)c(OCCN2CCCCC2)c1C(O)CCc1ccc(O)cc1 (stereo not shown) [compound 72]  3.4 mg/kg
2. COc1cc(Cl)c(OC)c(OCCN2CCCCC2)c1C(O)CCc1ccc(O)cc1 (stereo not shown) [compound 69]  8.6 mg/kg
3. COc1cc(OC)c(CCCc2ccc(O)cc2)c(OCCN2CCCCC2)c1 [compound 60]  8.9 mg/kg
4. COc1ccc(OC)c(C(O)CCc2cccc(O)c2)c1OCCN1CCCCC1 (stereo not shown) [compound 9]  11 mg/kg
5. COc1cc(Cl)c(OC)c(OCCN(C(C)C)C(C)C)c1C(O)CCc1ccc(O)cc1 (stereo not shown) [compound 71]  11.5 mg/kg
6. COc1cc(Cl)c(OC)c(C(O)CCc2ccc(O)cc2)c1OCCN1CCCCC1 (stereo not shown) [compound 73]  11.7 mg/kg
7. COc1ccc(OC)c(C(O)CCc2ccccc2O)c1OCCN1CCCCC1 (stereo not shown) [compound 8]  12 mg/kg
8. COc1c(OCCN2CCCCC2)c(C(O)CCc2ccc(O)cc2)c(OC)c2ccccc12 (stereo not shown) [compound 68, 3-parahydroxyphenyl 1-[3-(2-piperidino)ethoxy 1,4-dimethoxynaphtalenyl-2]propanol-1, hydrated]  12.3 mg/kg
9. CCCN(CCC)CCOc1c(OC)ccc(OC)c1C(O)CCc1ccc(O)cc1 (stereo not shown) [compound 62]  13 mg/kg
10. CCN(CC)CCOc1c(OC)c(Cl)cc(OC)c1C(O)CCc1ccc(O)cc1 (stereo not shown) [compound 70]  14 mg/kg
11. COc1ccc(OC)c(C(=O)CCc2ccc(O)cc2)c1OCCN1CCCCC1 [compound 2]  14 mg/kg
12. COc1c2c(c(OC)c(C(O)CCc3ccc(O)cc3)c1OCCN1CCCCC1)OCCO2 (stereo not shown) [compound 66]  15.7 mg/kg
13. COc1ccc(OC)c(C(O)CCc2ccccc2)c1OCCN1CCCCC1 (stereo not shown) [compound 3]  16 mg/kg
14. COc1cc([N+](=O)[O-])c(OC)c(C(O)CCc2ccc(O)cc2)c1OCCN1CCCCC1 (stereo not shown) [compound 74]  18.6 mg/kg
15. COc1ccc(OC)c(C(O)CCc2ccc(O)cc2)c1OCCN1CCCCC1 (stereo not shown) [compound 10]  20 mg/kg
16. COc1ccc(OC)c(C(O)CCc2ccc(O)cc2)c1OCCCN1CCCCC1 (stereo not shown) [compound 11]  22 mg/kg
17. CCN(CC)CCOc1c(OC)ccc(OC)c1C(O)CCc1ccc(O)cc1 (stereo not shown) [compound 12]  23 mg/kg
18. COc1ccc(OC)c(C(O)CCc2ccc(O)cc2)c1OCCN1CCCC1 (stereo not shown) [compound 13]  27 mg/kg
19. COc1ccc(CCC(O)c2c(OC)ccc(OC)c2OCCN2CCCCC2)cc1 (stereo not shown) [compound 7]  27 mg/kg
20. COc1ccc(OC)c(C(O)CCc2ccc(C)cc2)c1OCCN1CCCCC1 (stereo not shown) [compound 6]  31 mg/kg
21. COc1ccc(OC)c(C(O)CCc2ccc(F)cc2)c1OCCN1CCCCC1 (stereo not shown) [compound 4]  31 mg/kg
22. COc1c(OC)c(OC)c(C(O)CCc2ccc(O)cc2)c(OCCN2CCCCC2)c1OC (stereo not shown) [compound 67]  32.5 mg/kg
23. COc1ccc(OC)c(C(O)CCc2ccc(Cl)cc2)c1OCCN1CCCCC1 (stereo not shown) [compound 5]  33 mg/kg
24. COc1cc(OC)c(C(O)CCc2ccc(O)cc2)c(OCCN2CCCCC2)c1OC (stereo not shown) [compound 14]  33 mg/kg
25. CC(C)(Cc1ccc(O)cc1)C(O)c1ccccc1OCCN1CCCCC1 (stereo not shown) [compound 77]  43 mg/kg
